In BigSolDB 2.1:

Cc1cc(O)c2c(c1)C(=O)c1cc(O)cc(O)c1C2=O
solubility (mole fraction)
Settings	273.65 K	278.35 K	289.35 K	298.15 K	307.5 K	313.25 K	318.05 K	323.05 K
in ethanol	0.000485	0.000626	0.000777	0.000936	0.00116	0.00148	0.00168	0.00216
in n-octanol	0.00221	0.00239	0.00266	0.00272	0.00299	0.00347	0.00404	0.00463
